From patent US20260259232A1, “A METHOD” (OWLSTONE MEDICAL LIMITED, priority 2022, published 2026)

Experiment: Breath analysis by SIFT-MS before and after ingestion of 75 g glucose in healthy subjects
Assay type: in vivo, human
Conditions: for Cmax (maximum levels) in breath, interquartile range (IQR) / Cmax (maximum levels) in breath, median (M): breath sampled every 5 minutes for 90 minutes
[1] = 10 healthy subjects fasted overnight, after 75 grams of glucose in 300 ml of water

Description: A total of 10 healthy subjects were recruited and instructed to fast overnight and avoid drinking alcohol the day before the experiment. Breath was analysed using selected ion flow tube mass spectrometry (SIFT-MS). […] Afterwards, 75 grams of glucose dissolved in 300 ml of water were ingested, and 3 consecutive breath samples were provided every 5 minutes for 90 minutes. Measured compounds were expressed as part per billion volume/volume (PPB) and plotted as a function of time. Ambient samples were collected before and after the procedure.
The subjects were asked to fast overnight and not drink alcohol the day before the experiment.
A total of 75 g of glucose from Bulk (https://www.bulk.com/uk/dextrose.html?view=ppc&pid=2378&gclid=CjwKCAjw-vmkBhBMEiwAlrMeF2SOAMhqgNq65EV8YC2XWu63e4ByfJckgwv5jKZfzCA6BbIB24sLSBoC—kQAvD_BwE) was weighted in a glass and 300 ml of water was added and mixed until the full amount was dissolved. A total of 6 blank samples were collected and analysed before and after the procedure. The subjects provided breath samples before and every 5 minutes over 90 minutes after glucose ingestion. Each timepoint was represented by a 15 second breath exhalation consecutively repeated 3 times ed o and averaged for every timepoint. Breath samples were directly sampled for Selected-ion flow-tube mass spectrometry (SIFT-MS). Subjects exhaled into a single use Mouthpiece and Reservoir Tube (PO007257 Imspex) that were replaced for each timepoint collection.
Scans were performed in batch mode; data were collected in single ion mode (SIM). SIM scan was 50 secs long.

## CCO [ethanol]
[1]
  Cmax (maximum levels) in breath, interquartile range (IQR): 303-593 PPB
  Cmax (maximum levels) in breath, median (M): 400 PPB
After glucose administration, investigated timeframe 90 minutes
  Return of breath levels to baseline (in words): returned to baseline at the end of the investigated timeframe for all but 1 subject

## CC(=O)C(C)O (centres unmarked) [acetoin]
[1]
  Tmax (time to maximum level) in breath, interquartile range (IQR): 10 to 15 min
  Tmax (time to maximum level) in breath, median (M): 10 min
  Cmax (maximum levels) in breath, interquartile range (IQR): 4-8.8 PPB
  Cmax (maximum levels) in breath, median (M): 7 PPB
After glucose administration, all investigated subjects
  Time for breath levels to return to baseline: ≤ 50 min
